Source: article PMC7597377 (Science signaling, 2020)
Substitutions are numbered along the chain they refer to.

Key:
Assay in all cases: competitive radiometric binding vs [3H]E2
[1] = target: T1, ERα LBD (WT-Q, his-tagged) (Homo sapiens, UniProt P03372)
T1 sequence (P03372 302-552 limits assumed): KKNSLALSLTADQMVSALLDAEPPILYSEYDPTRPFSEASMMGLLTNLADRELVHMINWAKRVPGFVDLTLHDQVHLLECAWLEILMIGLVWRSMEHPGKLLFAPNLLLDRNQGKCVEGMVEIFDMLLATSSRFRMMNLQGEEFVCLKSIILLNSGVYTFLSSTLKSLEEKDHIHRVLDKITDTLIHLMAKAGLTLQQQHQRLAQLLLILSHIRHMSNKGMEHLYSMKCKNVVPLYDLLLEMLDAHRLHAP

[2] = target: T2, ERα LBD (WT-Q, his-tagged) (Homo sapiens, UniProt P03372, Q375L)
T2 sequence (P03372 302-552 Q375L limits assumed): T1 sequence (P03372 302-552 limits assumed) with Q74L

[3] = target: T3, ERα LBD (WT-Q, his-tagged) (Homo sapiens, UniProt P03372, Q375H)
T3 sequence (P03372 302-552 Q375H limits assumed): T1 sequence (P03372 302-552 limits assumed) with Q74H

[4] = target: T4, ERα LBD (WT-Q, his-tagged) (Homo sapiens, UniProt P03372, Q375E)
T4 sequence (P03372 302-552 Q375E limits assumed): T1 sequence (P03372 302-552 limits assumed) with Q74E

[5] = target: T5, ERα LBD (WT-Q, his-tagged) (Homo sapiens, UniProt P03372, Q375K)
T5 sequence (P03372 302-552 Q375K limits assumed): T1 sequence (P03372 302-552 limits assumed) with Q74K

Compound | Ki [1] | Ki [2] | Ki [3] | Ki [4] | Ki [5]
C[C@]12C[C@H](CCl)[C@@H]3c4ccc(O)cc4CC[C@H]3[C@@H]1CC[C@@H]2O [CME] | 0.11 ± 0.04 nM | 0.22 ± 0.05 nM | 0.58 ± 0.14 nM | 0.35 ± 0.08 nM | 0.41 ± 0.1 nM
CC[C@H]1C[C@]2(C)[C@@H](O)CC[C@H]2[C@@H]2CCc3cc(O)ccc3[C@@H]12 [Et-E2] | 0.13 ± 0.04 nM | 0.16 ± 0.04 nM | 0.74 ± 0.04 nM |  | 0.29 ± 0.02 nM
CC[C@H](c1ccc(O)cc1)[C@@H](CC)c1ccc(O)cc1 [Hex] | 0.06 ± 0.02 nM | 0.07 ± 0.01 nM | 0.29 ± 0.07 nM |  | 0.29 ± 0.05 nM
